How the values were obtained:
[1] = system: colon carcinoma cells (all cell lines); assay: [3H]-resveratrol efflux in presence of other ABC protein inhibitors; format: cell-based, human
SW480 cells [2] = assay: [3H]-resveratrol efflux measurement; format: in vitro ADME, human; conditions: for Vi = % of Resveratrol Efflux . min^−1: after 10 min uptake of 30 µM [3H]-resveratrol
Protocol: (§1) Resveratrol efflux was examined by incubating confluent cells in 6-well plates over 10 min with 30 µM tritiated resveratrol in complete medium at 37 °C. […] At the end of the incubation period, the labeled medium was removed and the cells were washed two times with PBS. Fresh medium (37 °C or 4 °C) was then quickly added to allow the cells to efflux tritiated resveratrol from 1 to 360 min. At the end of each time point, the cells were washed and lysed in NaOH 0.1 M, Na2CO3 2%, SDS 0.1%. The cell homogenates were transferred into flasks and cell-associated radioactivity was counted in a liquid scintillation analyzer.

MDR1 = conditions: mouse, not told, 30 µM
Protocol: as §1, with “analyzer. We evaluated 60 min area under curves (AUC) by integrating exponential regression curves of [^3H]-resveratrol time course accumulation between 0 and 60 min.” for “analyzer.”

MRP2 = conditions: human, 30 µM
Protocol: as §1, with “analyzer. We evaluated 60 min area under curves (AUC) by integrating exponential regression curves of [^3H]-resveratrol time course accumulation between 0 and 60 min.” for “analyzer.”

BCRP = conditions: human, not told, 30 µM
Protocol: as §1, with “analyzer. We evaluated 60 min area under curves (AUC) by integrating exponential regression curves of [^3H]-resveratrol time course accumulation between 0 and 60 min.” for “analyzer.”

MRP1 = target: T1, MRP1 (Homo sapiens, UniProt P33527); assay: [3H]-resveratrol efflux, BHK 21 vs BHK21-MRP1 overexpressing clone; format: in vitro ADME; conditions: BHK 21/MRP1 vs control BHK 21, 30 µM [3H]-resveratrol, 37°C
T1 construct: expressed in transfected cells; host or cells: BHK 21 (baby hamster kidney) stably transfected clone BHK21-MRP1, provided by Dr. Attilio Di Pietro
T1 sequence (P33527 whole entry): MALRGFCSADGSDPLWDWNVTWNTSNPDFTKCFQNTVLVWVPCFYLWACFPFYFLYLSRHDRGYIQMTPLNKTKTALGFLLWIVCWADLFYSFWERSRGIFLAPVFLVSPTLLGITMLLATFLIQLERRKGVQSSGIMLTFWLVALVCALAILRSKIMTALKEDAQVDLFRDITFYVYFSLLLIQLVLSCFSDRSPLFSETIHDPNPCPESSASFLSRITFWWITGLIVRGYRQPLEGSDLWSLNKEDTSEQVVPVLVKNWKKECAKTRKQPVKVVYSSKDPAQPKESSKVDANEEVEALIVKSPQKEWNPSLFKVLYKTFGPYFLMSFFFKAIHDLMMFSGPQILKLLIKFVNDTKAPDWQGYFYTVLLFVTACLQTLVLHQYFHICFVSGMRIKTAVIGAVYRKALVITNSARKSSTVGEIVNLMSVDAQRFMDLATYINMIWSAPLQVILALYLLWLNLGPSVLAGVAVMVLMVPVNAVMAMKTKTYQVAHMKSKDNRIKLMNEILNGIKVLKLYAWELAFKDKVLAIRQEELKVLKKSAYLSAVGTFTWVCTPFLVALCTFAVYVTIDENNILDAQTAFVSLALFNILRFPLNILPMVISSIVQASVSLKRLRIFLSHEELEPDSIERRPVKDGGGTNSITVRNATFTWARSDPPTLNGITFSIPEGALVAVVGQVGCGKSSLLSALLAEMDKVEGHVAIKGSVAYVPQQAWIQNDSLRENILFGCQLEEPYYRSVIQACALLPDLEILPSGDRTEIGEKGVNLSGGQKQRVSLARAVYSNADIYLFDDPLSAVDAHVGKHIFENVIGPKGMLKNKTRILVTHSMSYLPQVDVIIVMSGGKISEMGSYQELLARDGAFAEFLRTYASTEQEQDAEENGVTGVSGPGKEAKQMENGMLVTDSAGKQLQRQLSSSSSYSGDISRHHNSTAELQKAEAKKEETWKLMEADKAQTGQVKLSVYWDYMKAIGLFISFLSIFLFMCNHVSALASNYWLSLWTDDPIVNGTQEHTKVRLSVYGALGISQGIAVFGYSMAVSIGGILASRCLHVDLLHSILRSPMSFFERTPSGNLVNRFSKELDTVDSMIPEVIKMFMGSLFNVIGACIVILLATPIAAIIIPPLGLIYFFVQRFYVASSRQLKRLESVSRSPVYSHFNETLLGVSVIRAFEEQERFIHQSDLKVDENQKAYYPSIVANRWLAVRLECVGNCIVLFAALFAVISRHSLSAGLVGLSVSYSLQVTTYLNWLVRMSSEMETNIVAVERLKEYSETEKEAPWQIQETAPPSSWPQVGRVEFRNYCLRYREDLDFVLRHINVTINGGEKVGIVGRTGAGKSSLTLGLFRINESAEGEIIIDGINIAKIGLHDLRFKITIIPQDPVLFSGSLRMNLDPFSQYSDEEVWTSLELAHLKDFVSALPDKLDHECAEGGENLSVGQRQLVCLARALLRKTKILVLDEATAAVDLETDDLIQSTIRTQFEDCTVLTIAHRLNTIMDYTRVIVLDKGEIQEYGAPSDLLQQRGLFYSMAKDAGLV
Protocol: as §1, with “analyzer. We evaluated 60 min area under curves (AUC) by integrating exponential regression curves of [^3H]-resveratrol time course accumulation between 0 and 60 min.” for “analyzer.”

HT29 cells [3] = assay: [3H]-resveratrol efflux measurement; format: in vitro ADME, human; conditions: after 10 min uptake of 30 µM [3H]-resveratrol
Protocol: as §1, with “analyzer. We evaluated 60 min area under curves (AUC) by integrating exponential regression curves of [^3H]-resveratrol time course accumulation between 0 and 60 min.” for “analyzer.”

SW620 cells [4] = assay: [3H]-resveratrol efflux measurement; format: in vitro ADME, human; conditions: after 10 min uptake of 30 µM [3H]-resveratrol
Protocol: as §1, with “analyzer. We evaluated 60 min area under curves (AUC) by integrating exponential regression curves of [^3H]-resveratrol time course accumulation between 0 and 60 min.” for “analyzer.”

HCT116 cells [5] = assay: [3H]-resveratrol efflux measurement; format: in vitro ADME, human; conditions: after 10 min uptake of 30 µM [3H]-resveratrol
Protocol: as §1, with “analyzer. We evaluated 60 min area under curves (AUC) by integrating exponential regression curves of [^3H]-resveratrol time course accumulation between 0 and 60 min.” for “analyzer.”

HT29 cells [6] = assay: Cytotoxicity assay, crystal violet staining; format: cell-based; conditions: Homo sapiens, HT-29, HT29, 72 h, read-out: IC50 (concentration inhibiting 50% of the tumor proliferation)
Protocol: (§2) Cell lines were seeded into 96-well plates. After 24 h of culture, the cells were treated with increasing concentrations of resveratrol for 72 h. All control and treated cells received the same volume of ethanol (0.1%). After time of treatment, cells were harvested and the toxicities were evaluated by crystal violet staining. Briefly, after treatments cells were washed with PBS 1X, stained for 5 min with a crystal violet solution (0.5% (w/v) crystal violet in 25% (v/v) methanol), and then gently rinsed with water. Absorbances were read at 540 nm with a Biochrom Asys UVM 340 spectrophotometer, after the extraction of the dye by 0.1 M sodium citrate in 50% ethanol. The inhibitory concentrations 50% (IC50) were assessed by crystal violet staining after 72 h of treatment. IC50 values were calculated by a four-parameter non-linear regression with GraphPad Prismversion 6 software (San Diego, California, CA, USA). In some experiments, after 24 h of seeding, cells were treated with resveratrol (30 µM) for 48 h before crystal violet staining. All results were expressed as percentages of control values (vehicle alone).

SW620 cells [7] = assay: Cytotoxicity assay, crystal violet staining; format: cell-based; conditions: Homo sapiens, SW-620, SW620, 72 h, read-out: IC50 (concentration inhibiting 50% of the tumor proliferation)
Protocol: as §2

HCT116 cells [8] = assay: Cytotoxicity assay, crystal violet staining; format: cell-based; conditions: Homo sapiens, HCT-116, HCT116, 72 h, read-out: IC50 (concentration inhibiting 50% of the tumor proliferation)
Protocol: as §2

SW480 cells [9] = assay: Cytotoxicity assay, crystal violet staining; format: cell-based; conditions: Homo sapiens, SW480, 72 h, read-out: IC50 (concentration inhibiting 50% of the tumor proliferation)
Protocol: as §2

For C=C[C@H]1C[N@@]2CC[C@H]1C[C@H]2[C@H](O)c1ccnc2ccc(OC)cc12 [quinine], the “effect on resveratrol retention” value [1] was “enhance resveratrol retention”.
COc1ccc2c(c1)c(CC(=O)O)c(C)n2C(=O)c1ccc(Cl)cc1 [indomethacin, reference compound] was tested, and the “inhibition of the release of RSV” value (SW480 cells [2]; SW480, inhibitor 20 µM pretreatment 10 min, 5 min efflux at 37 °C) was 1.8 fold.
Oc1ccc(/C=C/c2cc(O)cc(O)c2)cc1 [RSV, trans 3,5,4′ trihydroxystilbene] was tested, and the “inhibition of RSV accumulation (AUC 0-60 min of intracellular RSV level) by transporter overexpression” value (MDR1) was 1.7 fold, the “AUC (0-60 min, intracellular RSV level) diminished between control cells and MRP2 overexpressing one” value (MRP2) was 1.2 fold and the “inhibition of RSV accumulation (AUC 0-60 min of intracellular RSV level) by transporter overexpression” value (BCRP) was 1.7 fold. The “effect of MRP1 overexpression on intracellular RSV level” value (MRP1) was “early slight effect”, the “Vi = % of Resveratrol Efflux . min^−1” value (SW480 cells [2]; SW480, 4°C) was 4.7 % of Resveratrol Efflux . min^−1 and the “Vi = % of Resveratrol Efflux . min^−1” value (SW480 cells [2]; SW480, 37 °C) was 6.3 % of Resveratrol Efflux . min^−1. The “Vi = % of Resveratrol Efflux . min^−1” value (HT29 cells [3]; HT29, 4°C) was 4.3 % of Resveratrol Efflux . min^−1, the “Vi = % of Resveratrol Efflux . min^−1” value (HT29 cells [3]; HT29, 37 °C) was 5.9 % of Resveratrol Efflux . min^−1 and the “Vi = % of Resveratrol Efflux . min^−1” value (SW620 cells [4]; SW620, 4°C) was 2.8 % of Resveratrol Efflux . min^−1. The “Vi = % of Resveratrol Efflux . min^−1” value (SW620 cells [4]; SW620, 37 °C) was 5.7 % of Resveratrol Efflux . min^−1, the “Vi = % of Resveratrol Efflux . min^−1” value (HCT116 cells [5]; HCT116, 4°C) was 2.6 % of Resveratrol Efflux . min^−1 and the “Vi = % of Resveratrol Efflux . min^−1” value (HCT116 cells [5]; HCT116, 37 °C) was 6.4 % of Resveratrol Efflux . min^−1. The IC50 (HT29 cells [6]) was roughly 40 µM, the IC50 (SW620 cells [7]) was roughly 20 µM and the IC50 (HCT116 cells [8]) was roughly 25 µM. The IC50 (SW480 cells [9]) was roughly 70 µM.
O=c1c(O)c(-c2ccc(O)c(O)c2)oc2cc(O)cc(O)c12 [quercetin] was tested, and the “effect on resveratrol retention” value [1] was “enhance resveratrol retention”.
C[C@@H]1O[C@@H](O[C@H]2C[C@@H](O)[C@]3(CO)[C@H]4[C@H](O)C[C@]5(C)[C@@H](C6=CC(=O)OC6)CC[C@]5(O)[C@@H]4CC[C@]3(O)C2)[C@H](O)[C@H](O)[C@H]1O [ouabain] was tested, and the “effect on resveratrol retention” value [1] was “enhance resveratrol retention”.
CCCN(CCC)S(=O)(=O)c1ccc(C(=O)O)cc1 [probenicid] was tested, and the “effect on resveratrol retention” value [1] was “enhance resveratrol retention”.
[O]=[V]([O-])([O-])[O-] [orthovanadate] was tested, and the “effect on resveratrol retention” value [1] was “enhance resveratrol retention”.

Reference: publication PMC6770091, “P-Glycoprotein 1 Affects Chemoactivities of Resveratrol against Human Colorectal Cancer Cells” (Nutrients, 2019)
